System: AB527-expressing cells
Test: Effect of valeric acid on cell growth and antibody production
Type: cell-based, Chinese Hamster
Settings: for Maximum Viable Cell Density: 14 days; for Doubling Time (DT): in h (unit assumed)
Description: To determine the effect of valeric acid on cell growth, AB527-expressing cells were cultured in GIBCO-CD-CHO complete medium supplemented with valeric acid to a concentration of 0 mM, 1 mM, 2 mM, 4 mM, or 8 mM. Cells were cultured for 14 days and viable cell density, percent viability, and integral viable cell density were determined using a CEDEX automated cell counter on days 0, 3, 5, 7, 10, 13, and 14. Antibody production was determined for each group of cultured cells on day 14 by protein A HPLC.

CCCCC(=O)O [Valeric Acid, valeric acid]
Integral of Viable Cell Density (IVC) (1 mM valeric acid): 6.74E+7 cells · day/mL
Specific Antibody Production Rate (Qp) (1 mM valeric acid): 58.44 mg/10^9 cells/day
Maximum Viable Cell Density (1 mM valeric acid): 94.60 10^5/mL
Final Antibody Titer (1 mM valeric acid, day 14): 4137.1 mg/L
antibody titer higher than that of the control culture (1 mM valeric acid, day 14): 36%
Final Antibody Titer (1 mM valeric acid, day 14, listed as valeric acid): 4137 mg/L
Doubling Time (DT) (1 mM valeric acid): 24.17
Integral of Viable Cell Density (IVC) (2 mM valeric acid): 6.55E+7 cells · day/mL
Specific Antibody Production Rate (Qp) (2 mM valeric acid): 54.45 mg/10^9 cells/day
Maximum Viable Cell Density (2 mM valeric acid): 81.00 10^5/mL
Final Antibody Titer (2 mM valeric acid, day 14): 3706.7 mg/L
Doubling Time (DT) (2 mM valeric acid): 24.17
Integral of Viable Cell Density (IVC) (4 mM valeric acid): 6.72E+7 cells · day/mL
Specific Antibody Production Rate (Qp) (4 mM valeric acid): 52.24 mg/10^9 cells/day
Maximum Viable Cell Density (4 mM valeric acid): 77.40 10^5/mL
Final Antibody Titer (4 mM valeric acid, day 14): 3600.1 mg/L
Doubling Time (DT) (4 mM valeric acid): 24.17
Integral of Viable Cell Density (IVC) (8 mM valeric acid): 4.76E+7 cells · day/mL
Specific Antibody Production Rate (Qp) (8 mM valeric acid): 56.16 mg/10^9 cells/day
Maximum Viable Cell Density (8 mM valeric acid): 54.40 10^5/mL
maximum cell density (8 mM valeric acid, at day 7): 5.4×10^6 cells/mL
viability (8 mM valeric acid, at day 7): 67.4%
Final Antibody Titer (8 mM valeric acid, day 14): 2760.4 mg/L
Doubling Time (DT) (8 mM valeric acid): 24.17

Reference: patent US8956832B2, “Cells expressing anti-GD2 antibodies and methods related thereto” (Morphotek, Inc., priority 2008, dated 2015)
